Test results reported in patent US8029818B2, “Method of blunting the postprandial glycemic response to a meal” (Abbott Laboratories, priority 2001, dated 2011).

Columns and labels:
humans = settings: fructose intake levels greater than 17% of total Kcal; cited from earlier work
[1] = tested on: healthy nondiabetic adult subjects; experiment: 2-hour meal tolerance test (50 g carbohydrate from instant mashed potatoes ±10 g fructose), postprandial glycemic response; type: in vivo, human; settings: for Incremental AUC / Incremental peak glucose / Time to peak: Mean ± SEM; for Glycemic index: incremental AUC for treatment/control (no supplemental fructose) × 100
Description: (§1) The primary objective of this study was to determine the effects of the timing of fructose ingestion on the postprandial glycemic response of healthy nondiabetic adult subjects to instant mashed potatoes, a rapidly digested starch. A secondary objective was to evaluate the effects of an acute challenge of 50 g of carbohydrate from instant mashed potatoes ±10 g fructose on subjective gastrointestinal tolerance.
The study followed a double-blind crossover design in which subjects participated in four 2-hour meal tolerance tests on separate occasions. Subjects were randomly assigned to one of 24 treatment sequences. After an overnight fast, subjects consumed 50 g carbohydrate from instant mashed potatoes with or without 10 g supplemental fructose. The effects of the timing of fructose ingestion were evaluated by having the subjects consume 10 g fructose 60, 30, or 0 min before the instant mashed potato meal. A control meal tolerance test was given where subjects received no fructose.
To ensure that subjects had similar glycogen stores on the 4 test days, subjects were instructed to consume a high carbohydrate diet (minimum 150 g carbohydrate per day) for 3 days before each meal tolerance test and were also asked to avoid exercise 24 hours before the experiment. On the evening before each meal tolerance test, all subjects consumed a low-residue dinner consisting of one 8 fl oz (237 ml) can of chocolate Ensure Plus® (Ross Laboratories, Columbus, Ohio) with additional Honey Graham Crunch Ensure® Bars (Ross Laboratories, Columbus, Ohio) to provide one-third of each subject's individual daily caloric requirement as estimated by the Harris-Benedict equation multiplied by an activity factor of 1.3. Subjects were instructed to fast overnight, following their low-residue evening meal, during which they were only allowed to consume water and smoking was prohibited. On the morning of each meal tolerance test, body weight, body temperature, pulse rate and blood pressure were measured by standard procedures. A fasting finger-prick capillary blood sample was obtained and analyzed utilizing two methods of glucose determination. One sample was immediately analyzed for glucose with an Accu-Chek Blood Glucose Monitoring System (Roche Diagnostics, Indianapolis, Ind.). An additional sample was collected into a capillary tube containing EDTA for whole blood glucose analysis (within 30 min of collection) using a YSI analyzer (model YSI 2300 STAT PLUS, Yellow Springs Instruments, Yellow Springs, Ohio). This fasting sample was considered the −60 min time point. According to randomization, subjects then consumed 10 g fructose at −60 min, −30, or 0 min or no supplemental fructose (30 ml water at −60 min). The test meal (50 g carbohydrate from instant mashed potatoes) was given at time 0 and consumed within 10 min. Additional finger-prick capillary blood was obtained at −30, 0, 15, 30, 45, 60, 90 and 120 min postprandial. Subjects were allowed 8 fl oz water (240 ml) during each 2-hour test. Immediately following each trial, body temperature, pulse rate and blood pressure were measured. Subjects returned within 7 days for repeat analysis with the appropriate crossover treatment.
The products tested were instant mashed potatoes (Hungry Jack Mashed Potatoes; Pillsbury Company) and purified crystalline fructose (Wild Oats Market grocery; Columbus, Ohio).
The primary variable for this study was incremental peak plasma glucose response. Secondary variables included incremental area under the curve, time to peak glucose, glycemic index, and subjective gastrointestinal tolerance factors. Exploratory variables included absolute and incremental plasma glucose response at −30, 0, 15, 30, 45, 60, 90, and 120 min postprandial.
A total of 31 healthy nondiabetic (fasting plasma glucose value less than 110 mg/dl; American Diabetes Association, 1997) volunteers (thirteen men and eighteen women) were recruited. […]

rats = settings: fructose intake levels greater than 17% of total Kcal; cited from earlier work
[2] = tested on: healthy nondiabetic adult subjects; experiment: Subjective gastrointestinal tolerance questionnaire, 24-h period after the test material; type: in vivo, human; settings: for Intensity of Cramping / Intensity of Distention / Intensity of Flatulence / Intensity of Nausea: 100-mm line scale score (0 Absent, 100 Severe); for Intensity of Cramping / Intensity of Distention / Intensity of Flatulence / Intensity of Nausea / Frequency of Cramping / Frequency of Distention / Frequency of Flatulence / Frequency of Nausea: Mean ± SEM, n=31; for Frequency of Cramping / Frequency of Distention / Frequency of Flatulence / Frequency of Nausea: 100-mm line scale score (0 Usual, 100 More than usual)
Description: as §1
Using a questionnaire, subjects were asked to report the frequency and intensity of the following symptoms: nausea, cramping, distention, and flatulence for the 24-h period immediately following consumption of the test material. Intensity and frequency was set to a 100-mm line scale (0 representing “Absent” and 100 “Severe” and 0 representing “Usual” and 100 “More than usual,” respectively). Subjects placed a single perpendicular slash mark across the 100 mm horizontal line to indicate their scores for each of these variables of frequency and intensity. A score of 5 or less was considered not physiologically meaningful.

[3] = 10 g fructose 60 or 30 min before the meal tolerance test vs fructose with the meal or no supplemental fructose, P<0.05
[4] = Accu-Chek values, 10 g fructose at 0 min (with test meal), n=31
[5] = Accu-Chek values, 10 g fructose at −30 min relative to test meal, n=31
[6] = Accu-Chek values, 10 g fructose at −60 min relative to test meal, n=31
[7] = YSI values (whole blood), 10 g fructose at 0 min (with test meal), n=28
[8] = YSI values (whole blood), 10 g fructose at −30 min relative to test meal, n=25
[9] = YSI values (whole blood), 10 g fructose at −60 min relative to test meal, n=26

In the case of `O=C(CO)[C@@H](O)[C@H](O)[C@H](O)CO` [fructose], the “effect on blood lipids” value (humans) is listed as “cause hypertriacylglycerolemia and hypercholesterolemia”, the “Peak incremental change from baseline for plasma glucose” value [1, 3] is listed as “lower” and the “incremental area under the curve for plasma glucose” value [1, 3] is listed as “lower”. The “incremental change from baseline in plasma glucose at the 0 min time point” value ([1]; 10 g fructose at −30 min compared to the 0-min time fructose ingestion treatment, P<0.05) was “increased”, the “incremental change from baseline in plasma glucose at the −30 min time point” value ([1]; 10 g fructose at −60 min compared to the other treatments, P<0.05) was “increased” and the postprandial glycemic response ([1]; 10 g fructose given 30 or 60 min before the meal tolerance test) was “reduced the postprandial glycemic response”. The postprandial glycemic response ([1]; 10 g supplemental fructose given with the meal glucose tolerance test, compared to the control) was “had no effect”, the “Incremental AUC” value [1, 4] was 3059 ± 246 mg·min/dL and the Incremental peak glucose [1, 4] was 65.7 ± 3.2 mg/dL. The Time to peak [1, 4] was 38 ± 1.9 min, the Glycemic index ([1]; Accu-Chek values, 10 g fructose at 0 min, n=31) was 98.8 ± 6.2 and the Glycemic index ([1]; Accu-Chek values, 10 g fructose at −30 min, n=31) was 80.2 ± 8.5. For the same compound, the “Incremental AUC” value [1, 5] was 2329 ± 210 mg·min/dL, the Incremental peak glucose [1, 5] was 49.5 ± 2.5 mg/dL and the Time to peak [1, 5] was 36 ± 2.0 min. The Glycemic index ([1]; Accu-Chek values, 10 g fructose at −60 min, n=31) was 84.1 ± 6.6, the “Incremental AUC” value [1, 6] was 2398 ± 142 mg·min/dL and the Incremental peak glucose [1, 6] was 51.6 ± 2.2 mg/dL. For the same compound, the Time to peak [1, 6] was 35 ± 1.3 min, the “Incremental AUC” value [1, 7] was 2592 ± 213 mg·min/dL and the Incremental peak glucose [1, 7] was 56.7 ± 3.0 mg/dL. The Time to peak [1, 7] was 37 ± 1.8 min, the “Incremental AUC” value [1, 8] was 1880 ± 189 mg·min/dL and the Incremental peak glucose [1, 8] was 39.9 ± 2.6 mg/dL. For the same compound, the Time to peak [1, 8] was 33 ± 1.5 min, the “Incremental AUC” value [1, 9] was 2094 ± 132 mg·min/dL and the Incremental peak glucose [1, 9] was 44.4 ± 2.0 mg/dL. For the same compound, the Time to peak [1, 9] was 33 ± 1.2 min, the Glycemic index ([1]; YSI values, 10 g fructose at 0 min, n=28) was 107.1 ± 11.1 and the Glycemic index ([1]; YSI values, 10 g fructose at −30 min, n=25) was 82.5 ± 10.6. The Glycemic index ([1]; YSI values, 10 g fructose at −60 min, n=26) was 89.6 ± 7.5, the “Time to peak glucose” value ([1]; between treatments (fructose at −60, −30, 0 min or none), P>0.05) was “did not differ” and the “postprandial incremental change from baseline in plasma glucose at 90 and 120 min” value ([1]; between treatments, P>0.05) was “did not differ”. The “incremental change from baseline in plasma glucose at 15 min” value ([1]; fructose at −30 min compared to the control and 0-min time fructose ingestion treatment, P<0.05) was “higher”, the “incremental change from baseline in plasma glucose over the 30, 45 and 60 min time points” value ([1]; fructose −60 or −30 min relative to the meal tolerance test) was “tended to be lower” and the “effect on blood lipids” value (rats) was “cause hypertriacylglycerolemia and hypercholesterolemia”. For the same compound, the “Intensity of Cramping” value ([2]; 10 g fructose at 0 min) was 3 ± 1.9, the “Intensity of Distention” value ([2]; 10 g fructose at 0 min) was 1 ± 0.4 and the “Intensity of Flatulence” value ([2]; 10 g fructose at 0 min) was 1 ± 0.5. For the same compound, the “Intensity of Nausea” value ([2]; 10 g fructose at 0 min) was 0 ± 0.2, the “Intensity of Cramping” value ([2]; 10 g fructose at −30 min) was 2 ± 1.6 and the “Intensity of Distention” value ([2]; 10 g fructose at −30 min) was 3 ± 1.5. For the same compound, the “Intensity of Flatulence” value ([2]; 10 g fructose at −30 min) was 5 ± 1.7, the “Intensity of Nausea” value ([2]; 10 g fructose at −30 min) was 1 ± 0.4 and the “Intensity of Cramping” value ([2]; 10 g fructose at −60 min) was 1 ± 0.3. The “Intensity of Distention” value ([2]; 10 g fructose at −60 min) was 1 ± 1.0, the “Intensity of Flatulence” value ([2]; 10 g fructose at −60 min) was 3 ± 1.5 and the “Intensity of Nausea” value ([2]; 10 g fructose at −60 min) was 1 ± 0.3. For the same compound, the “Frequency of Cramping” value ([2]; 10 g fructose at 0 min) was 7 ± 4.1, the “Frequency of Distention” value ([2]; 10 g fructose at 0 min) was 1 ± 0.6 and the “Frequency of Flatulence” value ([2]; 10 g fructose at 0 min) was 3 ± 1.3. For the same compound, the “Frequency of Nausea” value ([2]; 10 g fructose at 0 min) was 1 ± 0.2, the “Frequency of Cramping” value ([2]; 10 g fructose at −30 min) was 1 ± 0.2 and the “Frequency of Distention” value ([2]; 10 g fructose at −30 min) was 4 ± 1.9. For the same compound, the “Frequency of Flatulence” value ([2]; 10 g fructose at −30 min) was 7 ± 2.9, the “Frequency of Nausea” value ([2]; 10 g fructose at −30 min) was 1 ± 0.2 and the “Frequency of Cramping” value ([2]; 10 g fructose at −60 min) was 4 ± 3.2. The “Frequency of Distention” value ([2]; 10 g fructose at −60 min) was 1 ± 0.3, the “Frequency of Flatulence” value ([2]; 10 g fructose at −60 min) was 3 ± 1.7 and the “Frequency of Nausea” value ([2]; 10 g fructose at −60 min) was 1 ± 0.3. The “gastrointestinal symptoms (intensity and frequency of nausea, cramping, distention and flatulence)” value ([2]; all treatments: 50 g carbohydrate from instant mashed potatoes with or without 10 g supplemental fructose) was “Minimal effects”.
